Reference: US9617262B2, “Antibacterial cyclopental[C]pyrrole substituted 3,4-dihydro-1H-[1,8]naphthyridinones” (Janssen Sciences Ireland UC, priority 2011, dated 2017)
Converted amounts (≈) assume the structure as drawn.

Columns and labels:
[1] = tested on: Staphylococcus aureus ATCC 29213; test: Antibacterial susceptibility testing: IC90 determination (STA); format: cell-based; settings: STA ATCC 29213, 90% inhibitory concentration for bacterial growth
Description: (§1) The following bacteria were used: Staphylococcus aureus ATCC 29213, methicillin-resistant Staphylococcus aureus (MRSA) ATCC 700788 and Escherichia coli ATCC 35218. The bacteria used in this study were grown overnight in flasks containing 100 ml Mueller-Hinton broth (Difco cat. nr. 0757-17) in sterile de-ionized water, with shaking, at 37° C. Stocks were store at −70° C. until use.
(§2) Bacteria were incubated on a tryptic soy agar plate containing 5% sheep blood (Becton Dickinson cat. nr. 254053) for 18-24 hours at 35° C. in aerobic conditions (first passage). For the second passage, fresh Mueller-Hinton broth is inoculated with 5-10 colonies and grown overnight at 35° C. until turbidity (reaching log-phase) in aerobic conditions is reached. The bacterial suspension is then adjusted to 0.5 McFarland density and further diluted 1:100 in Mueller Hinton broth medium. This is used as inoculum.
(§3) MIC assays were performed by the broth microdilution method in a 96-well format (flat-bottom microtitre plates) with a final volume of 0.1 ml Mueller Hinton broth containing two-fold serial dilutions of compounds and inoculated with 5×10^5 CFU/ml of bacteria (standard inoculum size according to CLSI guidelines). Inhibitors are typically varied over the range of 63 to 0.49 μM. The final DMSO concentration in the assay was 1.25% (maximum tolerable DMSO concentration=6%). In the assays where the effect of human serum on the activity of the compounds against S. aureus was tested, human serum was added at a final concentration of 10%. The plates were incubated at 35° C. for 16-20 hours. At the end of incubation the bacterial growth was quantified fluorometrically. For this, resazurin was added to all wells and the plates were re-incubated. The incubation time is dependent on the type of bacteria. A change in color from blue to pink indicated the growth of bacteria. The fluorescence was read in computer-controlled fluorometer (Fluoroskan Ascent FL, Labsystems) at an excitation wavelength 540 nm and an emission wavelength of 590 nm. The % growth inhibition achieved by the compounds was calculated according to standard methods. The IC90 (expressed in μg/ml) was defined as the 90% inhibitory concentration for bacterial growth. A panel of reference compounds were simultaneously tested for QC approval.

S. aureus = test: Antibacterial susceptibility testing: IC90 determination with 10% human serum (STA + 10% HS); format: cell-based, Staphylococcus aureus; settings: human serum at a final concentration of 10%
Description: as §1, §2, §3
The results are depicted in the table D2 below (STA+10% HS).

Human HelaM cells = test: Cytotoxicity MTT assay (TOX HELAM); format: cell-based; settings: 72 hours
Description: Cytotoxicity of the compounds was evaluated using the MTT assay. Human HelaM cells grown in 96-well plates were exposed to serial dilutions of the tested compounds (final volume of 0.2 ml) and incubated for 72 hours at 37° C. and 5% CO2. Inhibitors are typically varied over the range of 25 to 0.8 μM. The final DMSO concentration in the assay is 0.5%. MTT (3-(4,5-Dimethylthiazol-2-yl)-2,5-diphenyltetrazolium bromide, a tetrazole) was added and reduced to purple formazan only in living cells. Solubilization of the formazan crystals was achieved by adding 100 μl 2-propanol. Cell viability was determined by measuring the absorbance of the reduced formazan, giving a purple color, at 540 nm and 690 nm. The absorbance measured at 690 nm was automatically subtracted from the absorbance at 540 nm, to eliminate the effects of non-specific absorption. The percent cytotoxicity achieved by the compounds was calculated according to standard methods. Cytotoxicity is reported as CC50, the concentration that causes a 50% reduction in cell viability.
The results are depicted in the table D2 below (TOX HELAM).

[2] = biological target: S. aureus ATCC 29213 FabI (Staphylococcus aureus (strain MRSA252), UniProt Q6GI75); test: Staphylococcus aureus FabI enzyme inhibition assay; format: biochemical; settings: pH 6.5, 30 minutes at room temperature
Description: FabI enzyme inhibition assays were carried out in half-area, 384-well microtitre plates. Compounds were evaluated in 40-μl assay mixtures containing 100 mM NaADA, pH 6.5 (ADA=N-[2-acetamido]-2iminodiacetic acid), 250 μM crotonoyl-CoA, 625 μM NADH and 50 μg/ml S. aureus ATCC 29213 FabI. Inhibitors were typically varied over the range of 50 to 0.39 μM. The reaction mixtures were incubated for 30 minutes at room temperature and the reaction was stopped by adding 200 mM Tris buffer (pH 9.0) to create a pH-shift. The consumption of NADH was monitored by measuring the change in absorbance at […]. By comparing sample readings to those of negative (absence of compound) and positive (absence of enzyme) controls, the percent inhibition of enzymatic activity of the compounds was determined. A best-fit curve is fitted by a minimum of squares method. From this an IC50-value (expressed in μg/ml), resulting in 50% inhibition of enzymatic activity, was obtained.

[3] = In vivo pharmacokinetic and oral bioavailability; settings: male Swiss mice
Description: The in vivo pharmacokinetics and oral bioavailability of the compound of the examples was/is investigated in male Swiss mice (fed) following single intravenous (i.v.) bolus and oral (p.o.) administration. For the i.v. and p.o. solution formulations, the compound was/is dissolved in a 20% HP-β-CD solution. The pH of the formulations was/is around pH 4. All i.v. formulations were isotonic.

[4] = tested on: Escherichia coli ATCC 25922; reference strain; test: Antimicrobial spectrum, broth microdilution MIC; format: cell-based; settings: E. coli ATCC 25922
Description: (§4) Minimum Inhibitory Concentrations (MICs) were determined in accordance with the Clinical and Laboratory Standards Institute (CLSI) methodology against aerobic bacteria (CLSI M07-A8) (see Clinical and Laboratory Standards Institute. 2009. Methods for dilution antimicrobial susceptibility tests for bacteria that grow aerobically. CLSI document M07-A8, Vol. 29, No. 2.) by the broth microdilution method with cation-adjusted Mueller-Hinton broth (CA-MHB) medium for the majority of organisms, except for Haemophilus influenza, where Haemophilis test medium (HTM) broth was used. Descriptions of the individual organisms can be found in the table. Where possible, ATCC standard strains were tested.
(§5) The inoculum density for the susceptibility testing was standardized to give a final inoculum of approximately 5×10^5 CFU/mL.
(§6) Stock solutions of the compounds were prepared in DMSO at concentrations of 1 mg/mL. Linezolid was prepared in DMSO at a concentration of 2 mg/mL. Stock solutions of all compounds were diluted into CA-MHB to give a range of two-fold dilutions, depending upon the sensitivity of the organism being tested.

[5] = tested on: Staphylococcus aureus ATCC 43300; reference strain MRSA; test: Antimicrobial spectrum, broth microdilution MIC; format: cell-based; settings: S. aureus ATCC 43300
Description: as §4, §5, §6

[6] = tested on: Haemophilus influenzae ATCC 49247; reference strain; test: Antimicrobial spectrum, broth microdilution MIC; format: cell-based; settings: H. influenza ATCC 49247
Description: as §4, §5, §6

[7] = tested on: Staphylococcus aureus ATCC 29213; reference strain MSSA; test: Antimicrobial spectrum, broth microdilution MIC; format: cell-based; settings: S. aureus ATCC 29213
Description: as §4, §5, §6

[8] = tested on: Escherichia coli Tol C mutant; test: Antimicrobial spectrum, broth microdilution MIC; format: cell-based; settings: E. coli tolC mutant
Description: as §4, §5, §6

Row | Structure (SMILES) | STA (361.159) IC90 [1] [µg/mL] | STA + 10% HS (361.169) IC90 (S. aureus) [µg/mL] | TOX HELAM (222.125) CC50 (Human HelaM cells) [µg/mL] | FabI IC50 [2] [µg/mL] | further results
1 | O=C1CCc2cc(/C=C/C(=O)N3C[C@@H]4CN(c5nccs5)C[C@@H]4C3)cnc2N1 [compound 24] | 4.05 | 2.44 | >3.9549 | 0.58 | –
2 | O=C1CCc2cc(/C=C/C(=O)N3CC4C=C(c5ccncc5)CC4C3)cnc2N1 (stereo not shown) [compound 12] | 0.33 | 0.53 | >9.707 | 0.44 | AUC0-inf ([3]; i.v. 2.5 mg/kg): 1124 ng·h/mL; Half life (t1/2) ([3]; i.v. 2.5 mg/kg): 1.1 h; Plasma clearance Cl ([3]; i.v. 2.5 mg/kg): 36.7 mL/min/kg; Vdz ([3]; i.v. 2.5 mg/kg): 3.7 L/kg; C0 ([3]; i.v. 2.5 mg/kg, 20% HP-β-CD solution): 2333 ng/mL; Oral bioavailability ([3]; p.o. 10 mg/kg vs i.v. 2.5 mg/kg): 21%; AUC0-last ([3]; p.o. 10 mg/kg): 914 ng·h/mL; Cmax ([3]; p.o. 10 mg/kg): 275 ng/mL; Tmax ([3]; p.o. 10 mg/kg): 1.0 h; MIC90 [4]: >8 µg/mL; MIC90 [5]: 0.125 µg/mL (≈ 0.323 µM); MIC90 [6]: 1 µg/mL (≈ 2.59 µM); MIC90 [7]: 0.125 µg/mL (≈ 0.323 µM); MIC90 [8]: 0.25 µg/mL (≈ 0.647 µM)
3 | O=C1CCc2cc(/C=C/C(=O)N3CC4C=C(c5cccs5)CC4C3)cnc2N1 (stereo not shown) [compound 3] | 0.03 | 0.06 | >3.256 | 0.29 | –
4 | O=C1CCc2cc(/C=C/C(=O)N3C[C@H]4CC(c5ccccc5)=C[C@H]4C3)cnc2N1 (single isomer, unassigned) [compound 13] | 0.31 | 0.43 | >9.683 | 0.39 | –
5 | O=C1CCc2cc(/C=C/C(=O)N3CC4C=C(c5ccco5)CC4C3)cnc2N1 (stereo not shown) [compound 19] | 0.18 | 0.12 | >9.43 | ~0.62 | –
6 | Cn1nccc1C1=CC2CN(C(=O)/C=C/c3cnc4c(c3)CCC(=O)N4)CC2C1 (stereo not shown) [compound 15] | 0.74 | 0.72 | >9.783 | 0.48 | –
7 | O=C1CCc2cc(/C=C/C(=O)N3CC4C=C(c5cccnc5)CC4C3)cnc2N1 (racemic) [compound 26] | 1.11 | 1.11 | >3.8646 | 0.41 | –
8 | Cc1ccccc1C1=CC2CN(C(=O)/C=C/c3cnc4c(c3)CCC(=O)N4)CC2C1 (stereo not shown) [compound 11] | 0.37 | 1.76 | 6.19 | 0.48 | –
9 | O=C1CCc2cc(/C=C/C(=O)N3CC4C=C(c5ccoc5)CC4C3)cnc2N1 (stereo not shown) [compound 22] | 0.23 | 0.25 | >9.43 | 0.58 | MIC90 [4]: >8 µg/mL; MIC90 [5]: 0.125 µg/mL (≈ 0.333 µM); MIC90 [6]: 4 µg/mL (≈ 10.7 µM); MIC90 [7]: 0.06 µg/mL (≈ 0.16 µM); MIC90 [8]: 1 µg/mL (≈ 2.66 µM)
10 | O=C1CCc2cc(/C=C/C(=O)N3C[C@@H]4CN(c5ccccc5)C[C@@H]4C3)cnc2N1 [compound 2] | 1.02 | 1.09 | >19.4696 | 0.78 | MIC90 [4]: >8 µg/mL; MIC90 [5]: 0.5 µg/mL (≈ 1.29 µM); MIC90 [6]: >8 µg/mL; MIC90 [7]: 0.25 µg/mL (≈ 0.644 µM); MIC90 [8]: 0.25 µg/mL (≈ 0.644 µM)
11 | O=C1CCc2cc(/C=C/C(=O)N3CC4C=C(c5ccccc5Cl)CC4C3)cnc2N1 (stereo not shown) [compound 9] | 0.33 | 0.69 | 4.77 | 0.75 | –
12 | Cc1ccccc1N1C[C@H]2CN(C(=O)/C=C/c3cnc4c(c3)CCC(=O)N4)C[C@H]2C1 [compound 17] | 0.37 | 0.38 | >10.1103 | 0.38 | –
13 | O=C1CCc2cc(/C=C/C(=O)N3CC4C=C(c5ccccc5F)CC4C3)cnc2N1 (stereo not shown) [compound 21] | 0.13 | 0.29 | >4.0346 | 0.65 | –
14 | COc1ccccc1N1C[C@H]2CN(C(=O)/C=C/c3cnc4c(c3)CCC(=O)N4)C[C@H]2C1 [compound 8] | 1.15 | 1.52 | >10.5122 | 0.50 | –
15 | O=C1CCc2cc(/C=C/C(=O)N3C[C@@H]4CN(c5ccccc5Cl)C[C@@H]4C3)cnc2N1 [compound 18] | 0.21 | 0.37 | >10.6233 | 0.44 | –
16 | N#Cc1ccccc1C1=CC2CN(C(=O)/C=C/c3cnc4c(c3)CCC(=O)N4)CC2C1 (stereo not shown) [compound 23] | 0.67 | 0.79 | >10.3108 | 0.41 | –
